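The concentration for 50% growth inhibition is given as GI50. TGI: total growth inhibition.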
Legend:
Assay in all cases: NCI tumour cell line growth inhibition, 384-well format
NCI-H23 lung = system: NCI-H23 lung
NCI-H322M lung = system: NCI-H322M lung
NCI-H460 NSCLC = system: NCI-H460 NSCLC
NCI-H522 lung = system: NCI-H522 lung
NCI/ADR-RES ovarian = system: NCI/ADR-RES ovarian
OVCAR-3 ovarian = system: OVCAR-3 ovarian
OVCAR-4 ovarian = system: OVCAR-4 ovarian
OVCAR-5 ovarian = system: OVCAR-5 ovarian
OVCAR-8 ovarian = system: OVCAR-8 ovarian
PC-3 prostate = system: PC-3 prostate
RPMI-8226 leukemia = system: RPMI-8226 leukemia
RXF 393 renal = system: RXF 393 renal
SF-268 CNS = system: SF-268 CNS
SF-295 CNS = system: SF-295 CNS
SF-539 CNS = system: SF-539 CNS
SK-MEL-28 melanoma = system: SK-MEL-28 melanoma
SK-MEL-5 melanoma = system: SK-MEL-5 melanoma
SK-OV-3 ovarian = system: SK-OV-3 ovarian
SN12C renal = system: SN12C renal
SNB-19 CNS = system: SNB-19 CNS
SNB-75 CNS = system: SNB-75 CNS
SR leukemia = system: SR leukemia
T-47D breast = system: T-47D breast
TK-10 renal = system: TK-10 renal
U251 glioblastoma = system: U251 glioblastoma
UACC-257 melanoma = system: UACC-257 melanoma
UACC-62 melanoma = system: UACC-62 melanoma

Compound: Cn1ncc(Cl)c1-c1cc(C(=O)N[C@H](CN)Cc2cccc(F)c2)sc1Cl
- GI50 (NCI-H23 lung): 3200 nM
- TGI (NCI-H23 lung): 11700 nM
- GI50 (NCI-H322M lung): 2150 nM
- TGI (NCI-H322M lung): 10900 nM
- GI50 (NCI-H460 NSCLC): 427 nM
- TGI (NCI-H460 NSCLC): 2670 nM
- GI50 (NCI-H522 lung): 1900 nM
- TGI (NCI-H522 lung): 5360 nM
- GI50 (NCI/ADR-RES ovarian): 7070 nM
- TGI (NCI/ADR-RES ovarian): 19900 nM
- GI50 (OVCAR-3 ovarian): 2020 nM
- TGI (OVCAR-3 ovarian): 10500 nM
- GI50 (OVCAR-4 ovarian): 6000 nM
- TGI (OVCAR-4 ovarian): 18900 nM
- GI50 (OVCAR-5 ovarian): 1620 nM
- TGI (OVCAR-5 ovarian): 4290 nM
- GI50 (OVCAR-8 ovarian): 2110 nM
- TGI (OVCAR-8 ovarian): 5320 nM
- GI50 (PC-3 prostate): 300 nM
- TGI (PC-3 prostate): 2690 nM
- GI50 (RPMI-8226 leukemia): 1760 nM
- TGI (RPMI-8226 leukemia): 3180 nM
- GI50 (RXF 393 renal): 680 nM
- TGI (RXF 393 renal): 2560 nM
- GI50 (SF-268 CNS): 4500 nM
- TGI (SF-268 CNS): 15300 nM
- GI50 (SF-295 CNS): 1070 nM
- TGI (SF-295 CNS): 2330 nM
- GI50 (SF-539 CNS): 337 nM
- TGI (SF-539 CNS): 2140 nM
- GI50 (SK-MEL-28 melanoma): 1330 nM
- TGI (SK-MEL-28 melanoma): 2670 nM
- GI50 (SK-MEL-5 melanoma): 1390 nM
- TGI (SK-MEL-5 melanoma): 2700 nM
- GI50 (SK-OV-3 ovarian): 737 nM
- TGI (SK-OV-3 ovarian): 8040 nM
- GI50 (SN12C renal): 2670 nM
- TGI (SN12C renal): 14400 nM
- GI50 (SNB-19 CNS): 1740 nM
- TGI (SNB-19 CNS): 10200 nM
- GI50 (SNB-75 CNS): 449 nM
- TGI (SNB-75 CNS): 3660 nM
- GI50 (SR leukemia): 1350 nM
- TGI (SR leukemia): 2640 nM
- GI50 (T-47D breast): 274 nM
- TGI (T-47D breast): 2050 nM
- GI50 (TK-10 renal): 1180 nM
- TGI (TK-10 renal): 5470 nM
- GI50 (U251 glioblastoma): 1110 nM
- TGI (U251 glioblastoma): 2430 nM
- GI50 (UACC-257 melanoma): 1460 nM
- TGI (UACC-257 melanoma): 2790 nM
- GI50 (UACC-62 melanoma): 1290 nM
- TGI (UACC-62 melanoma): 2970 nM

— PubChem BioAssay (NCI)
